According to paper PMC6315728, “Fatty Acid and Related Potassium Kv2 Channel Blockers: Toxicity and Physiological Actions on Mosquitoes” (Insects, 2018):
Like-named read-outs stand apart in the source and are kept apart here.

Target: T1, AgKv2.1 (voltage-gated potassium channel Kv2.1) (Anopheles gambiae, UniProt Q5TT67)
T1 construct: gene 1274312
T1 sequence (Q5TT67 1-1014): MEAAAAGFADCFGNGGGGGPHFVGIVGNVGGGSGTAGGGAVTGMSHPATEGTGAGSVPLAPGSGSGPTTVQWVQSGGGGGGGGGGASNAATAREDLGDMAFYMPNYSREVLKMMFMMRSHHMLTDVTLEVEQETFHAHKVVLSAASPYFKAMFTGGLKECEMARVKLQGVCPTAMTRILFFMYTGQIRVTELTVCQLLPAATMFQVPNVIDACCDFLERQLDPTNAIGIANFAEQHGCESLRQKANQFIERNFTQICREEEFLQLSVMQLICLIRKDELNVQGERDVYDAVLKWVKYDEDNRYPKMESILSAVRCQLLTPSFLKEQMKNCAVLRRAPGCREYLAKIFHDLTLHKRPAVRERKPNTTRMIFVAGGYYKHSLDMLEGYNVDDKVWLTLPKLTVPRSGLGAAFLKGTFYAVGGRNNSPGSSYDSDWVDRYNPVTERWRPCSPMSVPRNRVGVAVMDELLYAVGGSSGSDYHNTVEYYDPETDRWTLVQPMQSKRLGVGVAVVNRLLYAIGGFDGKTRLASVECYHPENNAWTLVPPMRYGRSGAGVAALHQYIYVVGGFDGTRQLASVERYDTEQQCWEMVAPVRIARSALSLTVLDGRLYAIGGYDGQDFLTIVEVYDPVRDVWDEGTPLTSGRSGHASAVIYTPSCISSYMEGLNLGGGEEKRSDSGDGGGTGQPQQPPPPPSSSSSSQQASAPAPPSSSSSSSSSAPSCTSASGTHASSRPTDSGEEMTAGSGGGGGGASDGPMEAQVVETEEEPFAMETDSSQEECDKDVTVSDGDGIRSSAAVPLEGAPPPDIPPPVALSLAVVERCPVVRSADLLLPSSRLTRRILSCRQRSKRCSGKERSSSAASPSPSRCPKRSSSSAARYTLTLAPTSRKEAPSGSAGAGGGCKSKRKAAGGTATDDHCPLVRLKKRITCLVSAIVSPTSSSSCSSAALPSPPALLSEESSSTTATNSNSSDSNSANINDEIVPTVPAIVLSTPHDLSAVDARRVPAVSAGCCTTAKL
Experiment: whole-cell patch-clamp of HEK-293 cells expressing AgKv2.[…], current inhibition at +[…] mV
Assay type: cell-based

| Structure (SMILES) | IC50 (read-out: Patch Clamp / IC50 /) [µM] | IC50 [µM] |
| --- | --- | --- |
| CCCCCC(O)CCCC(=O)O (stereo not drawn) [5-HDC] | 30 | – |
| CCCCCCCCCC(=O)O [decanoic acid] | – | 0.61 |
| CN(C)c1cccc2c(S(=O)(=O)NCCCCCCCCCCC(=O)O)cccc12 [DAUDA] | 1.18 | – |
